Where “and” joins values, the source holds several entries; their conditions need not be identical. Equal values may be shown once.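 Cells were grown in 96-well plates and exposed to each compound for 48 hours at five concentrations; endpoints were interpolated linearly between bracketing concentrations, or set to the highest concentration if not reached. The concentration for 50% growth inhibition is given as GI50. TGI denotes the concentration required for complete inhibition of growth.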
Columns and labels:
Experiment in all cases: DTP human tumour cell line panel, 48 h
NCI-H460 lung = system: NCI-H460 lung
NCI/ADR-RES ovarian = system: NCI/ADR-RES ovarian
OVCAR-4 ovarian = system: OVCAR-4 ovarian
OVCAR-5 ovarian = system: OVCAR-5 ovarian
RXF 393 renal = system: RXF 393 renal
SF-268 CNS = system: SF-268 CNS
SW-620 colon = system: SW-620 colon
KM12 colon = system: KM12 colon
NCI-H522 lung = system: NCI-H522 lung
MDA-MB-435 = system: MDA-MB-435

Row | Compound | GI50 (NCI-H460 lung) [µM] | TGI (NCI-H460 lung) | GI50 (NCI/ADR-RES ovarian) [µM] | TGI (NCI/ADR-RES ovarian) [µM] | GI50 (OVCAR-4 ovarian) [µM] | TGI (OVCAR-4 ovarian) | GI50 (OVCAR-5 ovarian) [µM] | TGI (OVCAR-5 ovarian) | GI50 (RXF 393 renal) | TGI (RXF 393 renal) | GI50 (SF-268 CNS) [µM] | TGI (SF-268 CNS) | GI50 (SW-620 colon) [µM] | TGI (SW-620 colon) | TGI (KM12 colon) | TGI (NCI-H522 lung) | GI50 (KM12 colon) [µM] | GI50 (NCI-H522 lung) [µM] | GI50 (MDA-MB-435) [µM] | TGI (MDA-MB-435) [µM]
1 | CC(=O)C1CCC2C3CC=C4CC(SC(=N)N)CCC4(C)C3CCC12C (centres undefined) | 1.58 | 3.09 µM | 2 | 5.28 | 1.85 | 4.8 µM | 2.43 | 8.87 µM | 1.66 µM | 3.63 µM | 3.11 | 16.1 µM | 1.62 | 3.16 µM |  |  |  |  |  | 
2 | COc1cc2c(cc1OC)c1c(OC)c(OC)cc3c1c1c2sc(=S)n1CC3 |  | > 100 µM |  |  |  | > 100 µM |  | > 100 µM |  | > 100 µM |  | > 100 µM |  | > 100 µM | > 100 µM | 34.6 µM |  |  |  | 
3 | COc1ccc2c(c1)N(CCO)C1=C(C(=O)OC1)C2c1ccccc1 (centres undefined) | 1.77 | 12.5 µM | 0.992 | 2.66 | 3.69 | > 50 µM | 3.77 | > 50 µM |  |  | 2.64 | > 50 µM | 1.64 | > 50 µM | 12 µM | 3.33 µM | 1.48 | 0.746 |  | 
4 | CC1=C2[C@H](c3ccccc3)C3C=CC2(c2ccccc23)N(C(=O)C(c2ccccc2)c2ccccc2)C1=O (some centres undefined) |  | > 100 µM |  |  |  | > 100 µM |  | > 100 µM |  | > 100 µM |  | > 100 µM |  | > 100 µM | > 100 µM |  |  |  |  | 
5 | CCCCCCCCCOC(=S)NCCCCC |  | 64 µM |  |  |  | > 100 µM |  |  |  | 53.6 µM |  | > 100 µM |  | > 100 µM |  | 46.6 µM |  |  |  | 
6 | COC(=O)C1=C(O)[C@H](C(=O)OC)[C@]2(O)[C@@H](C(=O)OC)[C@H]1C[C@@H](c1ccc(OC(=O)/C=C/c3ccco3)cc1)[C@@H]2C(=O)OC | 33 | > 100 µM | 12.3 | 32.2 |  |  | 19.1 | 43.3 µM | 41.6 µM | > 100 µM | 40.8 | > 100 µM | 36.3 | > 100 µM | > 100 µM |  | 43.7 |  | 21.7 | 66.8
7 | CCC[CH2][Sn]([CH2]CCC)([O]C(=O)c1cc(F)cc(F)c1)[O][Sn]([CH2]CCC)([CH2]CCC)[O]C(=O)c1cc(F)cc(F)c1 | 2.67 | 6.74 µM |  |  | 2.04 | 3.51 µM | 1.92 | 3.43 µM | 0.423 µM | 1.56 µM | 0.91 | 2.19 µM | 0.626 | 1.92 µM | 12.4 µM | 0.185 µM | 3.58 | 0.0538 |  | 
8 | COc1ccc(/C=C\c2cc(OC)c(OC)c(OC)c2)c(O)c1O | 0.106 | 9.22 µM and 4.42 µM |  |  | 0.959 | 17 µM and 63.5 µM | 43.7 | 51.8 µM and 96.4 µM | < 0.0322 µM and 0.111 µM | 36 µM and 6.31 µM | 0.249 | 37.8 µM and 32 µM | 0.0715 | 16.9 µM and 49.9 µM | 7.42 µM and 25.4 µM | 0.262 µM and 0.823 µM | 0.0568 |  |  | 0.0163
9 | O=C(O)CCSC(=O)Nc1ccccc1Cl |  | > 100 µM |  |  |  | > 100 µM |  | > 100 µM |  | > 100 µM |  | > 100 µM |  | > 100 µM | > 100 µM |  |  |  |  | 
10 | CCOC(=O)C1SC(=Nc2ccc(Cl)cc2C)N=C1C (centres undefined) |  | 54.2 µM |  |  |  | 56.2 µM |  | 45.9 µM |  | 35.8 µM |  | 94.5 µM |  | 53.7 µM | 35.1 µM | 27 µM |  |  |  | 
11 | COC(=O)c1ccc2c(c1)c1c(C)c3ccncc3c(C)c1n2C | 0.296 | 12.6 µM | 0.411 | 62.7 | 0.396 | 30.8 µM | 0.718 | > 100 µM |  |  | 0.114 | > 100 µM | 0.0658 | 58.3 µM | > 100 µM | 32 µM | 0.262 | 0.538 | 0.437 | 22.9
12 | CC1=NN(C(=O)c2ccc(Cl)cc2)C(=O)/C1=C/c1ccco1 |  | > 100 µM |  |  |  | > 100 µM |  | > 100 µM |  | > 100 µM |  | > 100 µM |  | > 100 µM | > 100 µM | > 100 µM |  |  |  | 
13 | CC1CCc2c(c(CC3CC(=O)NC(=O)C3)nn2-c2ccccc2)C1 (centres undefined) |  | > 100 µM |  | > 100 |  | > 100 µM |  | > 100 µM |  | > 100 µM |  | > 100 µM |  | > 100 µM | > 100 µM |  |  |  |  | > 100
14 | Cn1nc(-c2ccccc2)c(C(=O)/C=C/c2ccc(F)cc2)c(N2CCOCC2)c1=O |  | 78.2 µM |  |  |  |  |  |  |  | 27.8 µM |  | 38.2 µM |  | 47.1 µM |  | 36.4 µM |  |  |  | 
15 | CCc1nc2cc(/C=C/C(=O)NO)ccc2c(=O)n1CCc1ccc(F)cc1 | 1.08 | 3.82 µM | 0.577 | 3.15 | 2.34 | > 100 µM | 2.19 | > 100 µM |  |  | 2.14 | 5.98 µM |  |  | 14.3 µM | 4.06 µM | 2.2 | 1.34 | 1.7 | 4.38
16 | CCOC(=O)c1c2cccccc2n2c(=O)cc(C)nc12 |  | > 100 µM |  |  |  | > 100 µM |  | > 100 µM |  | > 100 µM |  | > 100 µM |  | > 100 µM | > 100 µM | > 100 µM |  |  |  | 
17 | O=C(c1ccccc1)c1c(CC(O)c2ccccc2)n(C(=O)c2ccccc2)c2ccccc12 (centres undefined) |  | > 100 µM |  |  |  | > 100 µM |  | > 100 µM |  |  |  | > 100 µM |  | > 100 µM | > 100 µM | 64.7 µM |  |  |  | 
18 | COC(=O)C(=O)C(C(=O)C=C(C)C)C(=O)C(=O)Nc1nc2ccc([N+](=O)[O-])cc2s1 (centres undefined) |  | > 100 µM |  |  |  | > 100 µM |  | > 100 µM |  | 45.2 µM |  | > 100 µM |  | > 100 µM | > 100 µM | 78.9 µM |  |  |  | 
19 | Cc1ccc(NC(=O)CC/C(CC(=O)C(C)(C)C)=N\Nc2ccc([N+](=O)[O-])cc2[N+](=O)[O-])cc1C |  | > 100 µM |  |  |  |  |  | > 100 µM |  | > 100 µM |  | > 100 µM |  | > 100 µM | > 100 µM |  |  |  |  | 

— PubChem BioAssay (NCI)
